Common to all, as to format: in vivo, human
Assay [1] deals with Acanthamoeba corneal ulceration. Put plainly: Example 16: patient with Acanthamoeba corneal ulceration. The conditions noted are these: before the PVP-I/DMSO composition. From the text: Acanthamoeba Corneal Ulceration; Treated with Aqueous 0.4% PVP-I in 39% USP Grade DMSO with Hydroxyethyl Cellulose
This patient was suffering from an Acanthamoeba corneal ulceration. In this type of infection there is often a history of contact lens use and home-made contact lens solutions, however, this is not a prerequisite. Acanthamoeba parasites are often introduced into the eye through a small break in the epithelium and gains foothold to the underlying structures. The patient endorses pain out of proportion with examination. […] The cornea contained multiple bullous lesions with enlarged corneal nerves. There was an overlying epithelial defect and faint ring-shaped infiltrate. The infiltrate had induced minimal stromalysis and the resultant cornea was not thinned. There was no hypopyon, however, cell and flare were present. Corneal cultures were taken, and Acanthamoeba species were identified on non-nutrient agar with E. coli overlay. […] Prepared was a composition as disclosed herein using 0.4% PVP-I in 39% DMSO with hydroxyethyl cellulose. The patient was treated by applying the solution topically to the eye six times daily. […] The corneal had begun the process of re-epithelialization and the ring ulcer began to lessen in intensity. […] A central corneal cicatrix was evident in the area of previous active infiltrate.

Assay [2] relates to rosacea blepharoconjunctivitis. The assay can be described thus: Example 3B: person with rosacea blepharoconjunctivitis. The conditions noted are these: before the PVP-I/DMSO gel. The text has this:
B. Rosacea Blepahritis; Treated with 1% PVP-I in 44% USP Grade DMSO with 4% Hydroxyethylcellulose in Water
A person with a past ocular history of glaucoma and pseudophakia presented with long standing ocular dryness, grittiness, periocular erythema and eyelid crusting. On facial inspection, nasal and facial telangiectasia with flushing were evident. Their topical medical regimen included Latanoprost 1 drop QHS OU, Brimonidine 1 drop BID OU, and Dorzolamide/Timolol 1 drop BID OU. The patient endorsed utilization of a variety of medicines and treatments to abate this condition, however, they were of little benefit. Failed therapies included topical steroids, antibiotics including azithromycin, combination medicines, and cyclosporine. Oral medicines including doxycycline and DHA/ALA/EPA were also ineffective.
Further towards the posterior tarsal area, dilated, engorged telangiectatic vessels were present. […] A diagnosis of rosacea blepharoconjunctivitis was made.
The patient was given a topical gel of 1% PVP-I in a dimethylsulfoxide (DMSO) vehicle that was prepared from a licensed compounding pharmacy. The treatment was administered twice daily and delivered by rubbing the gel onto the lash line and eyelid. […] Most prominently, much of the conjunctivitis, anterior lid erythema and thickening had reversed. […]

In assay [3] the test system is eyelid associated molluscum contagiosum. Put plainly: Example 21: patient with eyelid molluscum contagiosum. The conditions noted are these: before the PVP-I/DMSO composition. The procedure:
Eyelid Molluscum Contagiosum; Treated with 9% PVP-I in 39% USP Grade DMSO with 3% Hydroxyethylcellulose
This patient was suffering from an eyelid associated molluscum contagiosum. […] The process is often associated with pox virus infection of the epithelial layers. […] Cryotherapy with excision was eventually performed, however, the lesions recurred. Prepared was a composition as disclosed herein using 0.9% PVP-I in 39% DMSO with hydroxyethyl cellulose. The patient was treated by applying the solution topically to the eyelid and margin structures four times daily. […] The lesions had begun to involute and diminish in surface area.

In the case of `[H]/N=C(\N/C(=N/[H])NCCCCCCNC(=N)NC(=N)Nc1ccc(Cl)cc1)Nc1ccc(Cl)cc1` [chlorhexidine], the “outcome of earlier therapies (patient history)” value (shortened to “outcome of earlier therapies”) in assay [1] is reported as “without benefit”.

As to `CC[C@H]1OC(=O)[C@H](C)[C@@H](O[C@H]2C[C@@](C)(OC)[C@@H](O)[C@H](C)O2)[C@H](C)[C@@H](O[C@@H]2O[C@H](C)C[C@H](N(C)C)[C@H]2O)[C@](C)(O)C[C@@H](C)CN(C)[C@H](C)[C@@H](O)[C@]1(C)O` [azithromycin], the “outcome of earlier therapies” value in assay [2] is listed as “Failed”. In the case of `CC(C)Cn1cnc2c(N)nc3ccccc3c21` [imiquimod], in assay [3], the “outcome of earlier therapies” value was “without benefit”. Same read-out and setting: next, `O=C(O)c1ccccc1O` [salicylic acid]: “without benefit”. Turning to `N=C(N)c1ccc(OCCCOc2ccc(C(=N)N)cc2)cc1` [propamidine], in assay [1], the “outcome of earlier therapies” value was “without benefit”.
